Results on nine molecules are retold here after ChEMBL document CHEMBL1201862, “PubChem BioAssay data set” (2004).

Activity calls are given as the source filed them.

One test has as its target Mu-type opioid receptor (Homo sapiens, UniProt P35372). Briefly: SAR Analysis of Antagonists of the MOR Receptor using an Image-Based Assay - Set 3. [Related pubchem assays (depositor defined):AID1777, AID1785, AID1786, AID1966, AID2133, AID2136, AID2284, AID2285, AID2420]. In kind it is functional.
In test [1] the target is Delta-type opioid receptor (Homo sapiens, UniProt P41143). Briefly: SAR Analysis of Antagonists of the DOR Receptor using an Image-Based Assay - Set 3. [Related pubchem assays (depositor defined):AID1777, AID1785]. Format: functional.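 Further: U2OS cells expressing DOR1 and beta-arrestin GFP stimulated with 100 nM SNC80; imaging of GFP-tagged beta-arrestin moving into spots after receptor activation.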
Chain of Delta-type opioid receptor (P41143 whole entry): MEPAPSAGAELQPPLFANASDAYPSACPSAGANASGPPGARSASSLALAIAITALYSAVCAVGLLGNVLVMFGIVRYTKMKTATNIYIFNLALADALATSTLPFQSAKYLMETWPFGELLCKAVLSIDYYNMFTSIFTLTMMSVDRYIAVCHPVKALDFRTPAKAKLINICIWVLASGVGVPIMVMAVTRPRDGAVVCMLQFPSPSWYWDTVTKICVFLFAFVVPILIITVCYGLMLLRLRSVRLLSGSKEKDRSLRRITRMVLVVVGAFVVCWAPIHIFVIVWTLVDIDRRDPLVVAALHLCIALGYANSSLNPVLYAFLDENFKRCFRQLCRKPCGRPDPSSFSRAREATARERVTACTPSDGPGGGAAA
Test [2] has as its target T1, Kappa-type opioid receptor (Homo sapiens, UniProt P41145). Briefly: SAR analysis of small molecule antagonists of the kappa opioid receptor via a luminescent beta-arrestin assay - Set 3. [Related pubchem assays (depositor defined):AID1777, AID1778, AID1785, AID1786, AID1966, AID2133, AID2136, AID2285, AID2495]. Format: functional.
The target in test [3] is T1, Kappa-type opioid receptor. Nature of the test: SAR analysis of Antagonists of the Kappa Opioid Receptor (KOR) using an Image-Based Assay - Set 3. [Related pubchem assays (depositor defined):AID1777, AID1785]. In kind it is functional.
A further test deals with Hexokinase (Trypanosoma brucei, UniProt Q38C41). Nature of the test: Confirmation assay for inhibitors of Trypanosoma brucei hexokinase 1-Analogue-first series. [Related pubchem assays (depositor defined):AID1430, AID1632, AID2516, AID2560, AID2579, AID2600, AID449725, AID492951]. In kind it is functional.
Chain of Hexokinase (Q38C41 whole entry): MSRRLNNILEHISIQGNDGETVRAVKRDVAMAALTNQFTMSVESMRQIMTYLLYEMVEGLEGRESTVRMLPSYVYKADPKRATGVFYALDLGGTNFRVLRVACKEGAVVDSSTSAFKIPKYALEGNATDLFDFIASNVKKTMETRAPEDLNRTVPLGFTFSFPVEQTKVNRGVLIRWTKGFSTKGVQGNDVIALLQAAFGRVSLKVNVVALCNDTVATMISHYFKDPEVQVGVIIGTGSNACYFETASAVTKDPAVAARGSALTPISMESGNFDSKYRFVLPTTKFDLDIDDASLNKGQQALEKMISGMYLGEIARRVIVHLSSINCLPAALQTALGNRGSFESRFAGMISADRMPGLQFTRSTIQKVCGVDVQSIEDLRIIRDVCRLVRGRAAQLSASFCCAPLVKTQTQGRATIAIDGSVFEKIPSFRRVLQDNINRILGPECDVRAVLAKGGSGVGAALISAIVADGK
Test [4] deals with Potassium voltage-gated channel subfamily KQT member 2 (Rattus norvegicus, UniProt O88943, W236L). Nature of the test: potentiation of rat KCNQ2 current – cell-based, automated electrophysiology, mechanism study for KCNQ2 potentiator project, dose response (AID 2603). In kind it is functional.
Chain of Potassium voltage-gated channel subfamily KQT member 2 (Rattus norvegicus, UniProt O88943, W236L) (O88943 whole entry W236L): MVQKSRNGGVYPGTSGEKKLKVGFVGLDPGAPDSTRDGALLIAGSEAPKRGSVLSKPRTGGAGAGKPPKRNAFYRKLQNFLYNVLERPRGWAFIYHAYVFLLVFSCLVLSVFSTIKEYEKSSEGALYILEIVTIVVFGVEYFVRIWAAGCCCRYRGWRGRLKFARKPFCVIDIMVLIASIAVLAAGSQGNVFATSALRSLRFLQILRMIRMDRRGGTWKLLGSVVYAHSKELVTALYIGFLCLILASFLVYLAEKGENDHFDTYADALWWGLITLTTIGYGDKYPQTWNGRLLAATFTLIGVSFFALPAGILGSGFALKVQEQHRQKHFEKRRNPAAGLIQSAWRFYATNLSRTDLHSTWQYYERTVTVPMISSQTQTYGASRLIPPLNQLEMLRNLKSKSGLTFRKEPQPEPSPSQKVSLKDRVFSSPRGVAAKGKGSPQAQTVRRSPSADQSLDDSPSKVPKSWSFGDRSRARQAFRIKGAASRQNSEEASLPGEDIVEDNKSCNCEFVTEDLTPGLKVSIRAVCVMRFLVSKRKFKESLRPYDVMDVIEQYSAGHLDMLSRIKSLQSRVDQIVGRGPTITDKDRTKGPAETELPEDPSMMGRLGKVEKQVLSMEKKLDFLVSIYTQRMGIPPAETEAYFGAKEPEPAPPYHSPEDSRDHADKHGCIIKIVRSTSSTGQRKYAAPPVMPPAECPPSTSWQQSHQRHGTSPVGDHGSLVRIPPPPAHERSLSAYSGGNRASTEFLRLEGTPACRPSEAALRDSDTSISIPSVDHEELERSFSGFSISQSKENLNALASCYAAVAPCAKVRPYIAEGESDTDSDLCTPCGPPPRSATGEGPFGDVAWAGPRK
For test [5], the target named is Potassium voltage-gated channel subfamily KQT member 2 (Rattus norvegicus, UniProt O88943). Briefly: potentiation of rat KCNQ2 current – cell-based, retigabine-insensitive compounds, dose response (AID 2654). In kind it is functional.
Chain of Potassium voltage-gated channel subfamily KQT member 2 (Rattus norvegicus, UniProt O88943) (O88943 whole entry): as the sequence (O88943 whole entry W236L) above, with L236W counted along it
Test [6] deals with Luciferin 4-monooxygenase (Photinus pyralis, UniProt P08659). Nature of the test: inhibition of purified Photinus pyralis luciferase – biochemical, luminescence, dose response (AID 1891).
Chain of Luciferin 4-monooxygenase (P08659 whole entry): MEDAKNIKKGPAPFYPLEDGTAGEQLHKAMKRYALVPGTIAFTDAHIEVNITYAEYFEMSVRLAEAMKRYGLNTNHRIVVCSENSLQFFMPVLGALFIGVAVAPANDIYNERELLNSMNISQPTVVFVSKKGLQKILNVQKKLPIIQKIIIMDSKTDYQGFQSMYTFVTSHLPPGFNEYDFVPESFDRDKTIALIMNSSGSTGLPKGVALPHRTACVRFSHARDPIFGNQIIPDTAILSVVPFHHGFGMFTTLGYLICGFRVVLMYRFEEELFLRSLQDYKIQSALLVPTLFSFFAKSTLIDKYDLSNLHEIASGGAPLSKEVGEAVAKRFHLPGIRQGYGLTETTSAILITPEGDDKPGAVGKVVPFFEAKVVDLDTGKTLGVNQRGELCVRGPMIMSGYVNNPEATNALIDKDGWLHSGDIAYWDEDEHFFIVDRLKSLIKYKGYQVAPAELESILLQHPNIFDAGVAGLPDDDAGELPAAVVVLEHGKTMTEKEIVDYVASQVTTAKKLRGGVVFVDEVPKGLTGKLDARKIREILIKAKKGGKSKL
Test [7] in a line: Luminescence Cell-Based Dose Confirmation HTS to Identify Inhibitors of Platelet Dense Granule Release. [Related pubchem assays: 1663 (Primary HTS), 1678 (Summary of Project)]. Format: functional.
Test [8] is described as follows: PAR1 agonist-induced platelet activation inhibition – cell-based, fluorescence, flow cytometry, human platelets, dose response (AID 2511). Format: functional.
The nature of test [9]: blockers of SFLLRN-triggered platelet ATP secretion – cell-based, human platelets, luminescence, dry powder, dose response (AID 493100). Format: functional.
The target in a further test is X-box-binding protein 1 (Homo sapiens, UniProt P17861). In kind it is functional, Cricetulus griseus.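 Further: confirmatory dose-response counter-screen serving a CHOP assay.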
Chain of X-box-binding protein 1 (P17861 whole entry): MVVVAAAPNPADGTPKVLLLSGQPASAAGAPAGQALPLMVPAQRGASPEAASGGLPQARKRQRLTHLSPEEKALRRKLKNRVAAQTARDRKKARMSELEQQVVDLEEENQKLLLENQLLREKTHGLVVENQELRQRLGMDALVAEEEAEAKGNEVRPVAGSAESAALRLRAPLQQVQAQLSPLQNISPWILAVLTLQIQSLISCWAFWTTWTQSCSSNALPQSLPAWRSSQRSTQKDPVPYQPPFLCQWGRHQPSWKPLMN
The target of test [10] is Intestinal-type alkaline phosphatase (Homo sapiens, UniProt P09923). Briefly: Dose Response confirmation of uHTS hits from a small molecule inhibitors of human intestinal alkaline phosphatase via a luminescent assay. [Related pubchem assays (depositor defined):AID2544, AID2574]. In kind it is functional.
Chain of Intestinal-type alkaline phosphatase (P09923 whole entry): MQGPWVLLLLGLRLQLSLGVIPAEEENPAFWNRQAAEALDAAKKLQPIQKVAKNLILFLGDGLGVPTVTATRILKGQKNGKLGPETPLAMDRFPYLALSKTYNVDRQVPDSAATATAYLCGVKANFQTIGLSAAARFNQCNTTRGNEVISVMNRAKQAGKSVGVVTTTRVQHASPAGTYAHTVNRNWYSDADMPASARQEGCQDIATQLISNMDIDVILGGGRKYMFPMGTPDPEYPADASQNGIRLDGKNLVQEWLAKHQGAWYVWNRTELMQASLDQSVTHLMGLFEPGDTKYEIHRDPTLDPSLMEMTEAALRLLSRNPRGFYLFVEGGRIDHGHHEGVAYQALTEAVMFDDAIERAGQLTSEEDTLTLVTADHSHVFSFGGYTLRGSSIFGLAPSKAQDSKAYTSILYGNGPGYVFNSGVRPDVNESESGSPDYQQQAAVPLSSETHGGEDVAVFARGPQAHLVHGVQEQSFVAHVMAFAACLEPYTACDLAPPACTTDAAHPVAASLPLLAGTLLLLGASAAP
The next test addresses T2, Coagulation factor XII (Homo sapiens, UniProt P00748).
T2 sequence (P00748 whole entry): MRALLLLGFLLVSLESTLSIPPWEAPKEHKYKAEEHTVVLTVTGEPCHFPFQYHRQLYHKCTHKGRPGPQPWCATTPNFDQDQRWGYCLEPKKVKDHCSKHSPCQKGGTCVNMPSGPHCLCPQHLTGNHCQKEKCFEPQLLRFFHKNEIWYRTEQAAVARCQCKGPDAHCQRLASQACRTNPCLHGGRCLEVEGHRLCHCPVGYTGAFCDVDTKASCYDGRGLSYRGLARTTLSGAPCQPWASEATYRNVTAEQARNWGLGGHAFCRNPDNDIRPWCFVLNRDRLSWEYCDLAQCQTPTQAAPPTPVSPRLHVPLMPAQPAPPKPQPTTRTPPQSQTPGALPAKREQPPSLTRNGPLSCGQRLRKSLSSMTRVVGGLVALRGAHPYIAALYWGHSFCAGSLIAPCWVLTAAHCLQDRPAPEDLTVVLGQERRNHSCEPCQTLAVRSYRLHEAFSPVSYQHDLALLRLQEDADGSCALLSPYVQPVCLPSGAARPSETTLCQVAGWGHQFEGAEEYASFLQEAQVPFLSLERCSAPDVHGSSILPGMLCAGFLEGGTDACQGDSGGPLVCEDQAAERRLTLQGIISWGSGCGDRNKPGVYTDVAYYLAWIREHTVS
Nature of the test: activated coagulation factor XII inhibitor potency, concentration-effect curve, cell-free (AID 716). In kind it is functional.

In test [11] the target is FAD-linked sulfhydryl oxidase ALR (Homo sapiens, UniProt P55789). Nature of the test: ALR-catalysed DTT oxidation blockers – biochemical, H2O2 detection, luminescence, cherry-pick, dose response (AID 493248).
Chain of FAD-linked sulfhydryl oxidase ALR (P55789 whole entry): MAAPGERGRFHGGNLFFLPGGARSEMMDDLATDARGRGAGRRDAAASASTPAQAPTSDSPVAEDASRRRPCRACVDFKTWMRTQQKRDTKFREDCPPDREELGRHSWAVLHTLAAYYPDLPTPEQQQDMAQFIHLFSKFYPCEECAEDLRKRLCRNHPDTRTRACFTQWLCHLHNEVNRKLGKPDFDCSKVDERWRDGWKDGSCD
Test [12] relates to Streptococcus sp. 'group A'. Nature of the test: Streptococcus pyogenes SK(-)GAS viability under kanamycin – luminescence, BacTiterGlo, confirmation, counter-screen for streptokinase expression inhibitor project, dose response (AID 1900). In kind it is functional, organism-based. On the technique in general: The purpose of a counterscreen is to sort out artefacts and off-target activity.

A further test deals with T3, Streptokinase A (Streptococcus pyogenes serotype M1, UniProt P10520).
T3 sequence (P10520 whole entry): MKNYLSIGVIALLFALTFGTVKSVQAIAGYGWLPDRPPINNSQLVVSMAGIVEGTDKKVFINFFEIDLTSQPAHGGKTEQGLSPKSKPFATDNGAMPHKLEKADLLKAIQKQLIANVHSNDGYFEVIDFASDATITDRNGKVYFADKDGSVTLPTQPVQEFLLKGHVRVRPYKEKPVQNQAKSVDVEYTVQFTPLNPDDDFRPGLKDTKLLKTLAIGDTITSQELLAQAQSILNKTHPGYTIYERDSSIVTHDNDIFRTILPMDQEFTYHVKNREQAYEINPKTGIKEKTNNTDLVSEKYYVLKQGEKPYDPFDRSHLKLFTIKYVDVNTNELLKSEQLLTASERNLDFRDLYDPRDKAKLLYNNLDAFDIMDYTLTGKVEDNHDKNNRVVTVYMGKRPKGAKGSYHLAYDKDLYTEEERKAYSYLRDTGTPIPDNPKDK
Nature of the test: viability-normalized secreted streptokinase activity reduction – plasminogen activation absorbance, OD405, dose response (AID 1914).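 Further: secreted streptokinase activity via plasminogen activation per viability signal from cell pellet.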 In kind it is functional, Streptococcus pyogenes M1 GAS.

Another test has as its system Streptococcus. Briefly: GAS UMAA2166 growth inhibition – luminescence, BacTiterGlo, counter-screen for streptokinase expression inhibitor project, dose response (AID 1915).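 Further: potency for reduction of bacterial viability or growth.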 Format: functional, organism-based.
The subject of another test is HeLa. Briefly: viability loss in HeLa cells – cell-based, 24 h, cherry-picked samples, cytotoxicity control, dose response (AID 504726).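 Further: potency for cytotoxicity as loss of luminescence signal.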 The settings on record: Homo sapiens. Format: functional.
The nature of test [13]: Luminescence Cell-Based Dose Retest to Confirm Inhibitors of Cancer Stem Cells. [Related pubchem assays (depositor defined):AID2717, AID2721]. In kind it is functional. The settings on record: Homo sapiens.
A further test has as its system Salmon testes DNA. Briefly: acridine orange-DNA binding displacement – biochemical, fluorescence polarization, cherry-picked samples, set 2, artefact control for KSHV LANA DNA-binding inhibitor project, dose response (AID 504727). Set-up: species or system Salmonidae. (In general: Polarisation of emitted light reports the rotation of a fluorescent probe.)
The next test has as its target ORF 73 (Human herpesvirus 8, UniProt O40947). Nature of the test: KSHV LANA DNA-binding disruption – biochemical, fluorescence polarization, cherry-picked samples, dose response (AID 504725).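 Further: fluorescence polarization of a labeled DNA duplex reporting LANA DNA binding; potency is for inhibitors that block LANA binding to the DNA.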 On the set-up: species or system Human gammaherpesvirus 8.
In another test the target is Keap1/Nrf2 (Homo sapiens, UniProt Q14145). Briefly: disruptors of Keap1 binding to Nrf2 peptide – biochemical, fluorescence polarization, cherry-picked samples, dose response (AID 588683).
Test [14] concerns the target T4, Rac GTPase-activating protein 1 (Homo sapiens, UniProt Q9H0H5).
T4 sequence (Q9H0H5 whole entry): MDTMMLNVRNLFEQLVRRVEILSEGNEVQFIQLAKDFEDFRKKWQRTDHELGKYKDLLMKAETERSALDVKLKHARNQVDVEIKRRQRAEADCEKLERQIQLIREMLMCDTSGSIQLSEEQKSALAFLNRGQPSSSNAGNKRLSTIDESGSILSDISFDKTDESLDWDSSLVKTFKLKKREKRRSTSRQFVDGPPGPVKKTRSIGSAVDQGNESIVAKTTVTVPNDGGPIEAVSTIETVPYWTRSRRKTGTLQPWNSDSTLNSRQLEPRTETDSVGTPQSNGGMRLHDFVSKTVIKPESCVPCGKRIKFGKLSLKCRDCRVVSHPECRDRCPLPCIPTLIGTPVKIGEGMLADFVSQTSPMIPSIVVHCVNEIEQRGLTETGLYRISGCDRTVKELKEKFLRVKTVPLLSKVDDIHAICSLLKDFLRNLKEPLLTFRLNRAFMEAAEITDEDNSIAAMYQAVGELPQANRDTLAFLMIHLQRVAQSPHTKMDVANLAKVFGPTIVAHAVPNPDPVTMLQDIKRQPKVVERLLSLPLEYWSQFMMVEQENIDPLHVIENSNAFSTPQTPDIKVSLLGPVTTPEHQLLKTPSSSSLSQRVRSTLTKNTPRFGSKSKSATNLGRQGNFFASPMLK
Nature of the test: blockers of MgcRacGAP-driven Rac1 GTP hydrolysis – biochemical, ADP Hunter fluorescence, primary and confirmatory, confirmation (AID 624330). In kind it is functional.

Test [15] concerns the target NACHT, LRR and PYD domains-containing protein 3 (Homo sapiens, UniProt Q96P20). Nature of the test: NALP3 inhibitors in yeast, dose response, luminescent (AID 488799). In kind it is functional.

T1 sequence (P41145 whole entry): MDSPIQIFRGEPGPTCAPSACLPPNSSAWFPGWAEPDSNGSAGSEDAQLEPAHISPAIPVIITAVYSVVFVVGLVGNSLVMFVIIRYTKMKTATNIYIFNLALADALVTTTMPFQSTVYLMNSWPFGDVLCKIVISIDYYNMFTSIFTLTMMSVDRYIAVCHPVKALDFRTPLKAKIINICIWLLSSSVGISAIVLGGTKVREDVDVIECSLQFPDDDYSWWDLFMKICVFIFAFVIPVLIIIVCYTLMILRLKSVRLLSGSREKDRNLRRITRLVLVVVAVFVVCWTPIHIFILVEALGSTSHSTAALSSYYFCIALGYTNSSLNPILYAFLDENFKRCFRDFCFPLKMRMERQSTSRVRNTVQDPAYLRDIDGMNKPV
Chain of NACHT, LRR and PYD domains-containing protein 3 (Q96P20 whole entry, the tested form may be a part): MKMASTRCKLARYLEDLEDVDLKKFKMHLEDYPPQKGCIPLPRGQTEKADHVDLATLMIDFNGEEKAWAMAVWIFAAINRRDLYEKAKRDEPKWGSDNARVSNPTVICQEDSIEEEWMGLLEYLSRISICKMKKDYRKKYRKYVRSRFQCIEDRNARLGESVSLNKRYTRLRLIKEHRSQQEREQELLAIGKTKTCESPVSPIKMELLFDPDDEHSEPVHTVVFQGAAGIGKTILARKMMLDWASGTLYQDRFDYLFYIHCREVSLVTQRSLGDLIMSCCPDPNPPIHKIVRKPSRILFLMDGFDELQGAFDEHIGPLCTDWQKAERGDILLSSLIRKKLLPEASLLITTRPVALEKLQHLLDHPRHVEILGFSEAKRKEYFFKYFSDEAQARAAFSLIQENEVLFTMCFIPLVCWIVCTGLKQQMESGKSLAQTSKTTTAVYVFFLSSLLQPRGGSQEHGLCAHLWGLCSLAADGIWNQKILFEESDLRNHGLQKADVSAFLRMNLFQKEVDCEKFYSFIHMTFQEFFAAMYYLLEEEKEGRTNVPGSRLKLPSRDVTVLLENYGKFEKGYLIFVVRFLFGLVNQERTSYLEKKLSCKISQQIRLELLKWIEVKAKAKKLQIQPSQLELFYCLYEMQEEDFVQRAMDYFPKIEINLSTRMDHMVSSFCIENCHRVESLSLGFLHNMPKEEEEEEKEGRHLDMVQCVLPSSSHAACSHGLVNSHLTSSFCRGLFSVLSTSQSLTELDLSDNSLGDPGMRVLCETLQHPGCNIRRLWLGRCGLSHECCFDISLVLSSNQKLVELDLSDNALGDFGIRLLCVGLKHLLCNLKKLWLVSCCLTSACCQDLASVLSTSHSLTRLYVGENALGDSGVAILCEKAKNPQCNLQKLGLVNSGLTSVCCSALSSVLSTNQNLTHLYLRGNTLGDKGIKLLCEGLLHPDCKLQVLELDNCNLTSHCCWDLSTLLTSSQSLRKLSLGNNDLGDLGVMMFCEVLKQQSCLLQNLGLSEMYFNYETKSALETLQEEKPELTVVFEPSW

As for `CCc1ccc(S(=O)(=O)NCc2ccc(C(=O)NCCN(Cc3ccc(C)cc3)C(C)C)cc2)cc1`, the IC50 (usually the concentration at which inhibition is half-maximal) on Mu-type opioid receptor is > 32 µM (inactive); in test [1] it was > 32 µM (inactive); in [2], 0.742 µM (active); in [3] it was 0.173 µM (active).
For `O=c1cc(-c2ccccc2)sn1-c1ccccc1`, the IC50 on Hexokinase is > 25 µM (inactive).
Regarding `S=C(Nc1ccc(Oc2ccccc2)cc1)Nc1cccnc1`, the EC50 (commonly the midpoint of the concentration-response curve) is 7.25 µM (active) in [4] and 4.45 µM (active) in test [5].
Take `Cc1ccc(-c2c(C#N)c(N)n(-c3ccc(C)cc3)c(=O)c2C#N)cc1`: the EC50 in test [6] is > 112 µM (not active); in test [7], 2.3 µM (active); in [8], < 3 µM (active). The AC50 (in general, the midpoint of the concentration-response curve, whichever way the signal moves) in test [9] is 9.08 µM (active).
`O=C1CC(c2ccccc2Cl)CC(=O)C1=CNc1ccccc1` (stereo not given): on X-box-binding protein 1, the “Absolute IC50 (XBP1)” value turned out to be 10 µM.
For `CCOc1cccc(OCCOCCOc2ccccc2C(C)=O)c1`, the IC50 in test [10] was > 100 µM (inactive).
As to `CC(C)C1C(C#N)=C(N)Oc2[nH]nc(-c3cccs3)c21` (stereo not given), the IC50 at Coagulation factor XII is > 50 µM (inactive). Moreover, the AC50 in [11] is 6.41 µM (active).
`COc1ccc(NC(=O)c2cccc(-c3ccc(O)cc3)c2)cn1`: the EC50 in [12] was 16.9 µM (active); on Streptokinase A, > 150 µM (not active); in the test on Streptococcus it was > 150 µM (not active). For the same molecule, the half-maximal activity concentration (AC50) in the test with HeLa was 144 µM (active); in [13], 4.31 µM (active); in the test on Salmon testes DNA, 45.4 µM (active); at ORF 73 it was 34.3 µM (active); at Keap1/Nrf2, 43.8 µM (active). Further, in test [14], the IC50 was 42.3 µM (active).
`c1ccc(OCc2nnnn2-c2ccccc2)cc1`: in test [15], the IC50 was 6 µM (active).
